In one data set the target is T1, CYP11B1 (Homo sapiens, UniProt P15538).
T1 sequence (P15538 whole entry): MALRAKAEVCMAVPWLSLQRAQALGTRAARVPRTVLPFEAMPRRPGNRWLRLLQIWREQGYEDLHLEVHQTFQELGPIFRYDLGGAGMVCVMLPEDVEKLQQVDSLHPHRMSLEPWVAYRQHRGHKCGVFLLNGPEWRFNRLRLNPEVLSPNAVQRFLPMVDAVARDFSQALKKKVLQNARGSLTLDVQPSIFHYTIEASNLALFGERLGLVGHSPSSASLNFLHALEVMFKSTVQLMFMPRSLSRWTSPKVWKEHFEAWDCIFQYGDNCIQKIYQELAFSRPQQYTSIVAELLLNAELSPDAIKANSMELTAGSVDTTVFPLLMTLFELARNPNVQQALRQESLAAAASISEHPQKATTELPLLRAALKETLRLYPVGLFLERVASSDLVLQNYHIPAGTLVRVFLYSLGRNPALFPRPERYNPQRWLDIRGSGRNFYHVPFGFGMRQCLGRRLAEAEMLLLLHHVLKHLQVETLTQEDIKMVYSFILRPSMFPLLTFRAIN
Briefly: Inhibition of CYP11B1 (unknown origin).

The species entered for data set [1] is Homo sapiens. Briefly: Selectivity index, ratio of IC50 for CYP11B1 (unknown origin) to ratio of IC50 for CYP11B2 (unknown origin).
In another data set the test system is Candida albicans. Briefly: Antifungal activity against Candida albicans. Format: functional.
Data set [2] in a line: Lipophilicity, log D of compound at pH 7.4. As to conditions: buffer.
A short description of data set [3]: Partition coefficient, log P of the compound. The conditions noted are these: octanol/water.
The species named for data set [4] is Homo sapiens. The experiment in a line: Selectivity index, ratio of IC50 for human CYP11B1 expressed in hamster fibroblasts to ratio of IC50 human CYP11B2 expressed in hamster fibroblasts.
The target in data set [5] is T2, Cytochrome P450 11B2, mitochondrial (Homo sapiens, UniProt P19099).
T2 sequence (P19099 whole entry): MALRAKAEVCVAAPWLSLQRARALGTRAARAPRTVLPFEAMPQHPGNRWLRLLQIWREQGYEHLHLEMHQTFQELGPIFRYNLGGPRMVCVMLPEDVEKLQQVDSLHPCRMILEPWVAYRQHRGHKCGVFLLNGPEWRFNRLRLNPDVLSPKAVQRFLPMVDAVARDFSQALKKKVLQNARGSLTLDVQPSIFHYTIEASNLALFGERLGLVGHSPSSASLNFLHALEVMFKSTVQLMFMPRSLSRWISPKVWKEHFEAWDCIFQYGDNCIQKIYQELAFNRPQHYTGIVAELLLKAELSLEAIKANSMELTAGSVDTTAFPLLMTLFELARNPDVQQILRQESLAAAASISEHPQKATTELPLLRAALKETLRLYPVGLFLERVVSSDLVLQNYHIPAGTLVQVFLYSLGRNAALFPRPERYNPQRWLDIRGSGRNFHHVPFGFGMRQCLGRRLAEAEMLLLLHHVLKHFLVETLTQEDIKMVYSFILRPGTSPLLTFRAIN
The experiment in a line: Inhibition of human CYP11B2 expressed in hamster fibroblasts using deoxycorticosterone as substrate.

Data set [6] deals with T3, Cytochrome P450 11B1, mitochondrial (Homo sapiens, UniProt P15538).
T3 sequence (P15538 whole entry): T1 sequence (P15538 whole entry)
Briefly: Inhibition of human CYP11B1 expressed in hamster fibroblasts using deoxycorticosterone as substrate.

pIC50: −log10 of the molar value. In brackets after ≈: the same amount, converted by molar mass.

`Cc1nnc2n1-c1cc(F)c(-c3cccnc3)cc1CC2` gave a negative logarithm of the IC50 (pIC50) on CYP11B1 of 4.90. For the same molecule, the Ratio IC50 in the data set filed under Homo sapiens [1] turned out to be 96.
As to `Cc1nnc2n1-c1c(F)cc(-c3cccnc3)cc1CC2`, at CYP11B1, the pIC50 is 4.77. Moreover, in the data set filed under Homo sapiens [1], the Ratio IC50 came to 272.
For `Fc1cc2c(cc1-c1cccnc1)CCc1nncn1-2`, the pIC50 at CYP11B1 was 5.10. In the data set listed under Homo sapiens [1], the Ratio IC50 was 32.
For `CC(=O)N1CCN(c2ccc(OCC3COC(Cn4ccnc4)(c4ccc(Cl)cc4Cl)O3)cc2)CC1` (stereo not given) [KETOCONAZOLE], the MIC90 with Candida albicans was 0.25 µg/mL (≈ 0.47 µM).
`Clc1ccc(COC(Cn2ccnc2)c2ccc(Cl)cc2Cl)cc1` (stereo not given) [ECONAZOLE] gave a logD in data set [2] of 5.25. In data set [3], this molecule yielded a logP of 5.25. The MIC90 with Candida albicans amounted to 2 µg/mL (≈ 5.24 µM).
For the molecule `Clc1ccccc1C(c1ccccc1)(c1ccccc1)n1ccnc1` [CLOTRIMAZOLE], in data set [2], the pH-dependent lipophilicity (logD) turned out to be 5.05. For the same molecule, the lipophilicity (logP) in data set [3] is 5.05. In addition, in the data set with Candida albicans, the MIC90 worked out at 1 µg/mL (≈ 2.9 µM).
For the molecule `CCC(=O)N1CCc2cc(-c3cccnc3)ccc21`, the Ratio IC50 in the data set listed under Homo sapiens [4] turned out to be 21. In addition, the pIC50 in data set [5] is 6.64; in data set [6], 5.32.
`Clc1ccc(COC(Cn2ccnc2)c2ccc(Cl)cc2Cl)c(Cl)c1` (stereo not given) [MICONAZOLE] displayed an MIC90 with Candida albicans of 0.5 µg/mL (≈ 1.2 µM).
`OC(Cn1cncn1)(Cn1cncn1)c1ccc(F)cc1F` [FLUCONAZOLE]: the MIC90 against Candida albicans amounted to 1 µg/mL (≈ 3.27 µM). Against the preceding molecule, the MIC90 is about 2-fold higher.
Consider `Fc1cc(-c2cccnc2)cc2c1-n1cnnc1CC2`, for which, on CYP11B1, the pIC50 was 4.79. Further, the Ratio IC50 in the data set filed under Homo sapiens [1] is 94.
